Common to all, as to type: functional
Assay [1] has as its system Candida albicans. As to the kind of experiment: Antifungal activity against Candida albicans by microdilution broth method. Background: In broth dilution the organism is exposed to a series of concentrations in liquid medium.
Assay [2] has as its system Listeria monocytogenes. As to the kind of experiment: Antibacterial activity against Listeria monocytogenes Li6 isolate after 24 hrs by disc diffusion method. (Agar diffusion results depend on both activity and mobility in agar.)
Assay [3] deals with Bacillus cereus. As to the kind of experiment: Antibacterial activity against Bacillus cereus ATCC […] by microdilution broth method.
The test system of assay [4] is Escherichia coli. Briefly: Antibacterial activity against Escherichia coli ATCC 11230 after 24 hrs by disc diffusion method.
The subject of assay [5] is Escherichia coli. As to the kind of experiment: Antibacterial activity against Escherichia coli ATCC 11230 by microdilution broth method.
The test system of assay [6] is Candida albicans. Briefly: Antifungal activity against Candida albicans after 48 hrs by disc diffusion method.
Assay [7] relates to Listeria monocytogenes. Briefly: Antibacterial activity against Listeria monocytogenes Li6 isolate by microdilution broth method.
Assay [8] deals with Staphylococcus aureus. Briefly: Antibacterial activity against Staphylococcus aureus ATCC 25923 after 24 hrs by disc diffusion method.
Assay [9] concerns Staphylococcus aureus. As to the kind of experiment: Antibacterial activity against Staphylococcus aureus ATCC 25923 by microdilution broth method.
For assay [10], the system named is Bacillus cereus. Briefly: Antibacterial activity against Bacillus cereus ATCC […] after 24 hrs by disc diffusion method.
Assay [11] relates to Escherichia coli. As to the kind of experiment: Antibacterial activity against Escherichia coli ATCC 11230 at 10 ug after 24 hrs by disc diffusion method. The conditions noted are these: ATCC 11230, 24 h, read-out: IZ.
The test system of assay [12] is Candida albicans. As to the kind of experiment: Antifungal activity against Candida albicans at 50 ug after 48 hrs by disc diffusion method. To be noted: read-out: IZ.
In assay [13] the test system is Bacillus cereus. Briefly: Antibacterial activity against Bacillus cereus ATCC […] at 1 ug after 24 hrs by disc diffusion method. To be noted: read-out: IZ.
For assay [14], the system named is Staphylococcus aureus. As to the kind of experiment: Antibacterial activity against Staphylococcus aureus ATCC 25923 at 10U by disc diffusion method.

The values that follow come from ChEMBL document CHEMBL1149607, “Synthesis, characterization and antimicrobial activity of new aliphatic sulfonamide” (2007).

≈ marks a conversion by molar mass, not a printed value.

Usually MIC stands for the least concentration at which growth counts as inhibited. Read a low MIC as inhibition by little substance. Turning to `CCCS(=O)(=O)NCCCNS(=O)(=O)CCC`, the MIC amounted to 532 mg/L (≈ 1860 µM) against Candida albicans [1]; 380 mg/L (≈ 1330 µM) against Bacillus cereus [3]; 228 mg/L (≈ 796 µM) against Escherichia coli [5]; 532 mg/L (≈ 1860 µM) with Listeria monocytogenes [7]; 456 mg/L (≈ 1590 µM) in the assay on Staphylococcus aureus [9]. Further, the “inhibition zone (IZ)” value in the assay with Listeria monocytogenes [2] came to 11 mm; in the assay with Escherichia coli [4] it was 12 mm; in the assay on Candida albicans [6], 12 mm; in the assay on Staphylococcus aureus [8], 11 mm.

`CCCS(=O)(=O)NCCCCNS(=O)(=O)CCC`: the MIC in the assay on Candida albicans [1] was found to be 336 mg/L (≈ 1120 µM); against Bacillus cereus [3], 336 mg/L (≈ 1120 µM); in the assay on Escherichia coli [5] it was 240 mg/L (≈ 799 µM); in the assay with Listeria monocytogenes [7], 228 mg/L (≈ 759 µM); with Staphylococcus aureus [9], 336 mg/L (≈ 1120 µM). The “inhibition zone (IZ)” value with Escherichia coli [4] is recorded as 12 mm.

Regarding `CCCCS(=O)(=O)NCCNS(=O)(=O)CCCC`, the minimum inhibitory concentration (MIC) with Candida albicans [1] is 324 mg/L (≈ 1080 µM); against Bacillus cereus [3], 243 mg/L (≈ 809 µM); in the assay on Escherichia coli [5] it was 243 mg/L (≈ 809 µM); in the assay on Listeria monocytogenes [7], 216 mg/L (≈ 719 µM); in the assay on Staphylococcus aureus [9], 216 mg/L (≈ 719 µM). In addition, in the assay on Escherichia coli [4], the “inhibition zone (IZ)” value was 10 mm.

Regarding `CCCCS(=O)(=O)NCCCNS(=O)(=O)CCCC`, the MIC is 315 mg/L (≈ 1000 µM) in the assay with Candida albicans [1]; 180 mg/L (≈ 572 µM) with Bacillus cereus [3]; 225 mg/L (≈ 715 µM) with Escherichia coli [5]; 225 mg/L (≈ 715 µM) against Listeria monocytogenes [7]; 270 mg/L (≈ 859 µM) against Staphylococcus aureus [9]. For the same molecule, the “inhibition zone (IZ)” value is reported as 11 mm in the assay on Listeria monocytogenes [2], 10 mm in the assay on Escherichia coli [4], 10 mm with Candida albicans [6] and 10 mm in the assay on Bacillus cereus [10].

Consider `CCCCS(=O)(=O)NCCCCCNS(=O)(=O)CCCC`, for which the MIC against Candida albicans [1] turned out to be 540 mg/L (≈ 1580 µM); against Bacillus cereus [3], 540 mg/L (≈ 1580 µM); against Escherichia coli [5] it was 486 mg/L (≈ 1420 µM); against Listeria monocytogenes [7], 432 mg/L (≈ 1260 µM); in the assay with Staphylococcus aureus [9], 432 mg/L (≈ 1260 µM). For the same molecule, the “inhibition zone (IZ)” value is 12 mm with Escherichia coli [4] and 13 mm in the assay on Candida albicans [6].

As to `CCCCS(=O)(=O)NCCCCNS(=O)(=O)CCCC`, the minimum inhibitory concentration (MIC) is 555 mg/L (≈ 1690 µM) against Candida albicans [1]; 463 mg/L (≈ 1410 µM) with Bacillus cereus [3]; 555 mg/L (≈ 1690 µM) against Escherichia coli [5]; 648 mg/L (≈ 1970 µM) with Listeria monocytogenes [7]; 648 mg/L (≈ 1970 µM) in the assay with Staphylococcus aureus [9]. Further, the “inhibition zone (IZ)” value in the assay on Escherichia coli [4] is recorded as 11 mm; in the assay with Candida albicans [6], 12 mm; in the assay on Staphylococcus aureus [8], 10 mm.

As for `CCCS(=O)(=O)NCCNS(=O)(=O)CCC`, the MIC came out at 300 mg/L (≈ 1100 µM) against Candida albicans [1]; 250 mg/L (≈ 918 µM) with Bacillus cereus [3]; 150 mg/L (≈ 551 µM) against Escherichia coli [5]; 300 mg/L (≈ 1100 µM) in the assay on Listeria monocytogenes [7]; 300 mg/L (≈ 1100 µM) in the assay with Staphylococcus aureus [9]. The “inhibition zone (IZ)” value with Listeria monocytogenes [2] stood at 16 mm; with Escherichia coli [4] it was 11 mm; in the assay with Staphylococcus aureus [8], 12 mm.

As to `CC1(C)S[C@@H]2[C@H](NC(=O)[C@H](N)c3ccccc3)C(=O)N2[C@H]1C(=O)O` [AMPICILLIN], the zone of inhibition at 10 µg/disc in the assay on Escherichia coli [11] came to 9 mm.

In the case of `CC(=O)N1CCN(c2ccc(OC[C@H]3CO[C@](Cn4ccnc4)(c4ccc(Cl)cc4Cl)O3)cc2)CC1` [KETOCONAZOLE], the zone of inhibition at 50 µg/disc in the assay with Candida albicans [12] came to 16 mm.

Consider `Cc1onc(-c2ccccc2)c1C(=O)N[C@@H]1C(=O)N2[C@@H]1SC(C)(C)[C@@H]2C(=O)O` [OXACILLIN], for which the zone of inhibition at 1 µg/disc with Bacillus cereus [13] worked out at 9 mm.

Take `CC1(C)S[C@@H]2[C@H](NC(=O)Cc3ccccc3)C(=O)N2[C@H]1C(=O)O` [PENICILLIN G]: the “inhibition zone (IZ)” value in the assay on Staphylococcus aureus [14] is 19 mm.
